Earlier results on two substances are cited in article PMC3922827 (Journal of the American Chemical Society, 2013).

Read-outs that look alike come from different tables or passages of the source. No end group written: not given here. *: point of attachment. For = O=C*

The conditions of this data set: graded or all-or-none class.

As for AGWLLGKINLKALAALAKKIL-NH2 [TP10W], the “type of dye release from lipid vesicles” value is “graded”.
For the substance For-MAQKIISTIGKLVKWIIKTVNKFTKK [DL-1], the “type of dye release from lipid vesicles” value (LUVs) is reported as “all-or-none”.
